Measured values from ChEMBL document CHEMBL1132126, “Synthesis of spermidine and norspermidine dimers as high affinity polyamine transport inhibitors” (Bioorg Med Chem Lett, 1999).

Key:
Format in all cases: functional, cell-based
T47D [1] = experiment: Inhibition of [3H]spermidine transport by the compound was evaluated in T-47D human breast cancer cells
T47D [2] = experiment: Inhibition of [3H]spermine transport by the compound was evaluated in T-47D human breast cancer cells
T47D [3] = experiment: Inhibition of [3H]putrescine transport by the compound was evaluated in T-47D human breast cancer cells
ZR-75-1 = experiment: Inhibition of [3H]spermine transport by the compound was evaluated in ZR-75-1 human breast cancer cells

NCCCNCCCC(NCCCN)C(=O)NCCSSCCNC(=O)C(CCCNCCCN)NCCCN (stereo not drawn)
Ki (T47D [1]): 12600 nM | Ki (T47D [2]): 15900 nM | Ki (T47D [3]): 3100 nM | Ki (ZR-75-1): 4000 nM

NCCCCN(CC#CCN(CCCN)CCCCN)CCCN
Ki (T47D [1]): 16900 nM | Ki (T47D [2]): 27700 nM | Ki (T47D [3]): 1900 nM

NCCCCN(CCCN)Cc1ccc(CN(CCCN)CCCCN)cc1
Ki (T47D [1]): 2000 nM | Ki (T47D [2]): 2900 nM | Ki (T47D [3]): 280 nM | Ki (ZR-75-1): 240 nM

NCCCN(C/C=C/CN(CCCN)CCCN)CCCN
Ki (T47D [1]): 2000 nM | Ki (T47D [2]): 1600 nM | Ki (T47D [3]): 270 nM

NCCCCN(CCCN)CCCCN(CCCN)CCCCN
Ki (T47D [1]): 4900 nM | Ki (T47D [2]): 4300 nM | Ki (T47D [3]): 720 nM

NCCCN(CCCN)C(=O)CCC(=O)N(CCCN)CCCN
Ki (ZR-75-1): 1700 nM

NCCCN(CCCN)Cc1ccc(CN(CCCN)CCCN)cc1
Ki (T47D [1]): 1500 nM | Ki (T47D [2]): 1500 nM | Ki (T47D [3]): 160 nM | Ki (ZR-75-1): 700 nM

NCCCN(CCCN)CCCCN(CCCN)CCCN
Ki (T47D [1]): 2400 nM | Ki (T47D [2]): 6200 nM | Ki (T47D [3]): 520 nM | Ki (ZR-75-1): 560 nM

NCCCN(CC#CCN(CCCN)CCCN)CCCN
Ki (T47D [1]): 25600 nM | Ki (T47D [2]): 12800 nM | Ki (T47D [3]): 2600 nM

NCCCCN(C/C=C/CN(CCCN)CCCCN)CCCN
Ki (T47D [1]): 1800 nM | Ki (T47D [2]): 1500 nM | Ki (T47D [3]): 100 nM

NCCCCN [PUTRESCINE]
Ki (T47D [3]): 7400 nM

NCCCCNCCCN [SPERMIDINE]
Ki (T47D [1]): 4400 nM

NCCCNCCCCNCCCN [SPERMINE]
Ki (T47D [1]): 920 nM | Ki (T47D [2]): 2700 nM | Ki (T47D [3]): 650 nM | Ki (ZR-75-1): 200 nM
